The target of assay [1] is HPK1 (SLP76 phosphorylation at Ser376 in Jurkat and EL-4 cells) (Homo sapiens, UniProt Q92918). It counts as cell-based. The settings on record: αCD3/αCD28 Dynabeads stimulated cells, pSLP76 (Ser376) detection; read-out: HPK1 pSLP76 IC50. How it is done: Cellular Assay—Phospho-SLP-76 (Ser376).
Inhibition of HPK1 enzymatic activity in cells was determined by detection of SLP76 phosphorylation at Ser376 residue in lysate from Jurkat (human) and EL-4 (mouse) cells. Jurkat and EL-4 cells express both HPK1 and SLP76 naturally. All cells were cultured in RPMI 1640 media containing 10% heat inactivated fetal bovine serum (FBS) and 1×Penicillin-Streptomycin. In either Jurkat or El-4 assay, cells were pre-incubated with test compounds prior to T cell stimulation by respective αCD3/αCD28 Dynabeads™. For detection, plates were read on the Envision and percent inhibition and IC50 were determined by Smart fit in Genedata Analyzer.
For Jurkat cells: 35 μL cell suspension were dispensed at a density of 30,000 cells/well in 384-well plates containing HBSS (Gibco, 14025076)+0.1% BSA). 10-point logarithmic serial dilution of test compounds in DMSO were prepared by a Hamilton automated liquid handling robot and 35 nL was transferred into each well by an Echo liquid handler. After 60 min. pre-incubation, the cells were stimulated by adding 5 μL human T activator αCD3/αCD28 Dynabeads™ (Gibco, 11132D) at 1.2×107 beads/mL for 15 minutes at 37° C. Detection of Ser376 phosphorylation status was accomplished by first adding 10 μL of 5×AlphaLISA lysis buffer (Perkin Elmer, ALSU-PSLP-A500) to each well of the cell plate using a Multidrop Combi (5840300), followed by 20 minutes shaking. 10 μL cell lysate from each treatment were then transferred to a white 384-well plate (Corning 3572) and incubated with AlphaLISA acceptor beads for one hour (AlphaLISA SureFire Ultra p-SLP76(Ser376), Perkin Elmer, ALSU-PSLP-A500), and donor beads for additional 2 hours at room temperature in the dark.
For EL-4.IL2 assay, 50 μL cell suspension at 2×10^6 cells/mL in HBSS were first dispensed into 384-well plates and then 50 nL serial dilutions of test compounds were spotted to each well by an Echo liquid handler. After 60 min. incubation at 37° C., cells were stimulated by adding 5 μL mouse T cell activator αCD3/αCD28 Dynabeads™ (ThermFisher Scientific, 11452D) for 30 minutes at 37° C. After a brief spin and subsequent supernatant discarded, 12.5 μL of Cisbio lysis buffer were added to each well and plates were shaken for 30 min at 450 RPM. For detection, 4 μL prepared HTRF antibody mixture (Cisbio, 63ADK000U) in detection buffer were mixed with 16 μl of cell lysate and plates were incubated at room temperature for 19 hours prior to EnVision reading.

Assay [2] concerns the target full-length human HPK1 (MAP4K1) (Homo sapiens (Human), UniProt Q92918). Description: HPK1 Kinase Assay (Biochemical Assay), ADP-Glo. Conditions: GST-HPK1 3.2 nM, 10 μM ATP, MBP substrate, read-out: HPK1 enzymatic IC50. The source says: HPK1 Kinase Assay (Biochemical Assay).
A recombinant fusion protein consisting of full-length human HPK1 (MAP4K1) with an N-terminal Glutatione S-transferase (GST) tag was produced in insect cells Sf21 using the baculovirus expression system. GST-HPK1 protein was purified from cell lysates by glutathione Sepharose affinity chromatography. The assay is run in three continuous steps: 1) the HPK1 enzymatic kinase reaction, 2) an ATP depletion, and 3) the ADP detection, the steps 2 and 3 are performed with ADP-Glo™ Kinase Assay kit from Promega (V9101). Test compounds were prepared by 10-point serial dilution in dimethyl sulfoxide (DMSO) and 100 nL of each dilution was spotted onto a 384-well Optiplate (Perkin Elmer and Cat #6007299) by Labcyte Echo. 5 μL kinase reaction buffer (0.02% Brij-35, 2 mM DTT, 50 mM HEPES pH 7.5, MgCl2 10 mM, BSA 0.01% and O-glycerophosphate 12.5 mM) containing HPK1 (3.2 nM) enzyme was transferred to each well and incubated for 15 minutes at room temperature at 60% humidity. The enzymatic reaction was started by adding 5 μl of Start-Mix (10 μM ATP and 3.235 μM MBP). After 120 minutes, the reaction was stopped by adding 5 μL of ADP-Glo reagent (Promega, V9101) and incubating for 40 min. in the dark at 23° C. To determine the level of ADP, 10 μl ADP-Glo Detection solution was added and incubated for 1 hour at 23° C. in the dark. The plate was transferred to a Perkin Elmer EnVision (2104 Multilabel Reader) for luminescence detection and percent inhibition activity and IC50 value were determined using Genedata Screener.
(In ADP-Glo the light output rises with the ADP produced.)

Our source for the IC50 values is patent US20240025922A1, “TETRAHYDROPYRIDO[3,4-d]PYRIMIDINES AS HPK1 INHIBITORS” (Merck Patent GmbH, priority 2022, published 2024).

Where only a bound is given, the exact number is not on record here.

Sequence of HPK1 (SLP76 phosphorylation at Ser376 in Jurkat and EL-4 cells) (Q92918 whole entry, looked up): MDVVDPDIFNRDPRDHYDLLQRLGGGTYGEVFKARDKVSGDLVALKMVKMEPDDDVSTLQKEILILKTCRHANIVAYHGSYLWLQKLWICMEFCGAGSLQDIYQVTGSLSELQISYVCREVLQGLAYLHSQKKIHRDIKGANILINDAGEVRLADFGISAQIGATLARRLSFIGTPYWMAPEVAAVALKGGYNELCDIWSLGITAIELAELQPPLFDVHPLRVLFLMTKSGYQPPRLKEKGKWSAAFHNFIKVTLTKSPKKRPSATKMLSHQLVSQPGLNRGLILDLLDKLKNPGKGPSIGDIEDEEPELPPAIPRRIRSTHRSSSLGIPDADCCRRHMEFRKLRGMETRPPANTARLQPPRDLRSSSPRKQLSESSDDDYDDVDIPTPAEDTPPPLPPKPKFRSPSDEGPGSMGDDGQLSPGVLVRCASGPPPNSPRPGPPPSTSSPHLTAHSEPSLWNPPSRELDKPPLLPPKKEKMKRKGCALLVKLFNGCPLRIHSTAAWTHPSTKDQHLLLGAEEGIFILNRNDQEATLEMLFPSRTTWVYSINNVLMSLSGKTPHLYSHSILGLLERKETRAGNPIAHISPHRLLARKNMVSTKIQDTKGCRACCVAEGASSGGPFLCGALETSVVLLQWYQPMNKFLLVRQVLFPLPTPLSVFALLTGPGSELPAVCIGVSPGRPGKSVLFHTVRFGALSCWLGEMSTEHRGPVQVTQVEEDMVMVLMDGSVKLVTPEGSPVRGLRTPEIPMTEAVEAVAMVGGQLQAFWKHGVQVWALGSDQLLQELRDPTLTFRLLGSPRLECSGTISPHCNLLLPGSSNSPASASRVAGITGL
Sequence of full-length human HPK1 (MAP4K1) (Q92918 whole entry, the tested form may be a part): as the sequence (Q92918 whole entry, looked up) above

By IC50 is commonly meant the midpoint of a concentration-inhibition curve. `Cc1c(N2CCc3cnc(Nc4ccc(NC(=O)CN5CCOCC5)nc4)cc3C2)cnc2c1NCCO2` [Example 32, N-{5-[(6-{8-methyl-1H,2H,3H-pyrido[2,3-b][1,4]oxazin-7-yl}-5,6,7,8-tetrahydro-2,6-naphthyridin-3-yl)amino]pyridin-2-yl}-2-(morpholin-4-yl)acetamide]: the results for the IC50 in assay [1] and in assay [2] were above 1000 nM and below 100 nM, respectively.
The like results for `Cc1c(N2CCc3cnc(Nc4ccc(S(C)(=O)=O)cc4)nc3C2)cnc2c1NCCO2` [Example 24, N-(4-methanesulfonylphenyl)-7-{8-methyl-1H,2H,3H-pyrido[2,3-b][1,4]oxazin-7-yl}-5H,6H,7H,8H-pyrido[3,4-d]pyrimidin-2-amine] were, in that order, 500 to 1000 nM and below 100 nM.
Regarding `Cc1c(N2CCc3cnc(Nc4ccc5c(c4)CNC5=O)nc3C2)cnc2c1NCCO2` [Example 85, 5-((7-(8-methyl-2,3-dihydro-1H-pyrido[2,3-b][1,4]oxazin-7-yl)-5,6,7,8-tetrahydropyrido[3,4-d]pyrimidin-2-yl)amino)isoindolin-1-one], the IC50 was above 1000 nM in assay [1] and below 100 nM in assay [2].
The like results for `Cc1c(N2CCc3cnc(Nc4ccc(CC(=O)N(C)C)cc4)nc3C2)cnc2c1NCCO2` [Example 189, N,N-dimethyl-2-{4-[(7-{8-methyl-1H,2H,3H-pyrido[2,3-b][1,4]oxazin-7-yl}-5H,6H,7H,8H-pyrido[3,4-d]pyrimidin-2-yl)amino]phenyl}acetamide] were, in that order, below 500 nM and below 100 nM.
For the compound `Cc1c(N2CCc3cnc(Nc4ccc(OCS(C)(=O)=O)cc4)nc3C2)cnc2c1NCCO2` [Example 25, N-[4-(methanesulfonylmethoxy)phenyl]-7-{8-methyl-1H,2H,3H-pyrido[2,3-b][1,4]oxazin-7-yl}-5H,6H,7H,8H-pyrido[3,4-d]pyrimidin-2-amine], the IC50 in assay [1] is below 500 nM; in assay [2] it was below 100 nM.
As to `Cc1c(N2CCc3cnc(Nc4cnc5c(c4)CC(O)CC5)nc3C2)cnc2c1NCCO2` (stereo not shown) [Example 110, 3-((7-(8-methyl-2,3-dihydro-1H-pyrido[2,3-b][1,4]oxazin-7-yl)-5,6,7,8-tetrahydropyrido[3,4-d]pyrimidin-2-yl)amino)-5,6,7,8-tetrahydroquinolin-6-ol], the IC50 was 500 to 1000 nM in assay [1] and below 100 nM in assay [2].
Consider `Cc1c(N2CCc3cnc(Nc4ccc([C@H]5CCCS5(=O)=O)cc4)cc3C2)cnc2c1NCCO2` (single isomer, unassigned) [Example 169], for which the values for the IC50 in assay [1] and in assay [2] were below 500 nM and below 100 nM, respectively.
Take `Cc1c(N2CCc3cnc(Nc4ccnc(C(C)(C)O)c4)nc3C2)cnc2c1NCCO2` [Example 67, 2-{4-[(7-{8-methyl-1H,2H,3H-pyrido[2,3-b][1,4]oxazin-7-yl}-5H,6H,7H,8H-pyrido[3,4-d]pyrimidin-2-yl)amino]pyridin-2-yl}propan-2-ol]: the IC50 was 500 to 1000 nM in assay [1] and below 100 nM in assay [2].
The like results for `Cc1c(N2CCc3cnc(Nc4ccc(Cn5cncn5)cc4)cc3C2)cnc2c1NCCO2` [Example 144, 6-{8-methyl-1H,2H,3H-pyrido[2,3-b][1,4]oxazin-7-yl}-N-{4-[(1H-1,2,4-triazol-1-yl)methyl]phenyl}-5,6,7,8-tetrahydro-2,6-naphthyridin-3-amine] were, in that order, below 500 nM and below 100 nM.
The like results for `Cc1c(N2CCc3cnc(Nc4ccc(NCCN(C)C)nc4)cc3C2)cnc2c1NCCO2` [Example 26, N2-[2-(dimethylamino)ethyl]-N5-(6-{8-methyl-1H,2H,3H-pyrido[2,3-b][1,4]oxazin-7-yl}-5,6,7,8-tetrahydro-2,6-naphthyridin-3-yl)pyridine-2,5-diamine] were, in that order, 500 to 1000 nM and below 100 nM.
The like results for `Cc1c(N2CCc3cnc(Nc4ccc(Cn5nccn5)cc4)nc3C2)cnc2c1NCCO2` [Example 185, 7-{8-methyl-1H,2H,3H-pyrido[2,3-b][1,4]oxazin-7-yl}-N-{4-[(2H-1,2,3-triazol-2-yl)methyl]phenyl}-5H,6H,7H,8H-pyrido[3,4-d]pyrimidin-2-amine] were, in that order, below 500 nM and below 100 nM.
Turning to `CNC(=O)c1ccc(Nc2ncc3c(n2)CN(c2cnc4c(c2C)NCCO4)CC3)cc1F` [Example 74, 2-fluoro-N-methyl-4-((7-(8-methyl-2,3-dihydro-1H-pyrido[2,3-b][1,4]oxazin-7-yl)-5,6,7,8-tetrahydropyrido[3,4-d]pyrimidin-2-yl)amino)benzamide], the figures for the IC50 in assay [1] and in assay [2] were below 500 nM and below 100 nM, respectively.
Consider `Cc1cc(Nc2ncc3c(n2)CN(c2cnc4c(c2C)NCCO4)CC3)ccc1C(=O)NCCN1CCOCC1` [Example 39, 2-methyl-4-[(7-{8-methyl-1H,2H,3H-pyrido[2,3-b]oxazin-7-yl}-5H,6H,7H,8H-pyrido[3,4-d]pyrimidin-2-yl)amino]-N-[2-(morpholin-4-yl)ethyl] benzamide], for which the IC50 in assay [1] was below 500 nM; in assay [2] it was below 100 nM.
The like results for `Cc1cc(Nc2ncc3c(n2)CN(c2cnc4c(c2C)NCCO4)CC3)ccc1NC(=O)CN(C)C` [Example 45, 2-(dimethylamino)-N-{2-methyl-4-[(7-{8-methyl-1H,2H,3H-pyrido[2,3-b][1,4]oxazin-7-yl}-5H,6H,7H,8H-pyrido[3,4-d]pyrimidin-2-yl)amino]phenyl}acetamide] were, in that order, below 500 nM and below 100 nM.
Regarding `Cc1c(N2CCc3cnc(Nc4cccc(C(C)(C)O)c4)nc3C2)cnc2c1NCCO2` [Example 82, 2-(3-((7-(8-methyl-2,3-dihydro-1H-pyrido[2,3-b][1,4]oxazin-7-yl)-5,6,7,8-tetrahydropyrido[3,4-d]pyrimidin-2-yl)amino)phenyl)propan-2-ol], the IC50 in assay [1] is below 500 nM; in assay [2] it was below 100 nM.
Regarding `COc1cccc(F)c1N1CCc2cnc(Nc3cnc4c(c3)CN(C)CC4)nc2C1` [Example 120, 7-(2-fluoro-6-methoxyphenyl)-N-(6-methyl-5,6,7,8-tetrahydro-1,6-naphthyridin-3-yl)-5,6,7,8-tetrahydropyrido[3,4-d]pyrimidin-2-amine], in assay [1], the IC50 was above 1000 nM.
With `Cc1c(N2CCc3cnc(Nc4cc5n(n4)CC(=O)N(C)CC5)nc3C2)cnc2c1NCCO2` [Example 22, 6-methyl-2-[(7-{8-methyl-1H,2H,3H-pyrido[2,3-b][1,4]oxazin-7-yl}-5H,6H,7H,8H-pyrido[3,4-d]pyrimidin-2-yl)amino]-4H,5H,6H,7H,8H-pyrazolo[1,5-d][1,4]diazepin-7-one], the IC50 in assay [2] lay in the range of 100 to 1000 nM.
Same read-out and setting: next, `Cc1c(N2CCc3cnc(Nc4ccc(CS(C)(=O)=O)cc4)nc3C2)cnc2oc(=O)[nH]c12` [Example 160, 6-(2-{[4-(methanesulfonylmethyl)phenyl]amino}-5H,6H,7H,8H-pyrido[3,4-d]pyrimidin-7-yl)-7-methyl-1H,2H-[1,3]oxazolo[5,4-b]pyridin-2-one]: below 100 nM.
Still for that read-out and setting: next, `CN1CCc2ncc(Nc3ncc4c(n3)CN(c3ccccn3)CC4)cc2C1` [Example 129, 6-methyl-N-[7-(pyridin-2-yl)-5H,6H,7H,8H-pyrido[3,4-d]pyrimidin-2-yl]-5,6,7,8-tetrahydro-1,6-naphthyridin-3-amine]: 100 to 1000 nM.
